How the values were obtained:
[1] = test system: Cotton Aphid (Aphis gossypii); assay: Insecticidal test for cotton aphid in a foliar spray assay; assay type: in vivo; conditions: 72 h, 200 ppm foliar spray on squash or cotton seedlings, live aphids counted after three days, Abbott's corrected % control, read-out: APHIGO % Ctrl @ 200 ppm
Method: Squash or cotton seedlings with fully expanded cotyledon leaves were trimmed to one cotyledon per plant and infested with wingless adult and nymph stage cotton aphid (APHIGO) one day prior to chemical application. Each plant was examined before chemical application to ensure uniform infestation (ca. 30-70 aphids per plant). Compounds (2 mg) were dissolved in 2 mL of acetone/methanol (1:1) solvent, forming stock solutions of 1000 ppm. The stock solutions were diluted 5× with 0.025% Tween 20 in H2O to obtain a solution at 200 ppm. A hand-held Devilbiss aspirator type sprayer was used to apply the spray solutions until runoff to both sides of the squash cotyledon leaves. Four plants (4 replications) were used for each concentration of each compound. Reference plants (solvent check) were sprayed with the diluent only. Treated plants were held in a holding room for three days at approximately 25° C. and 40% RH before the number of live cotton aphids on each plant was recorded. Insecticidal activity data presented in Table 3 were generated by using Abbott's correction formula: Corrected%Control=100*(X−Y)/X • where X=No. of live aphids on solvent check plants • Y=No. of live aphids on treated plants

[2] = test system: Sweetpotato Whitefly (Bemisia tabaci); assay: Insecticidal test for sweetpotato whitefly in foliar spray assay; assay type: in vivo; conditions: 200 ppm foliar spray on cotton plants infested with eggs, live nymphs counted after 8-9 days, Abbott's corrected % control, read-out: BEMITA % Ctrl @ 200 ppm
Method: Cotton plants were used as test substrate and were grown in 3-inch pots and pruned until only 1 small (3-5 cm) true leaf remained. The plants were then placed in a room with whitefly ([…]) adults and allowed to be infested with eggs. After a 2-3 day egg-laying period, plants were taken from the adult whitefly room and the adults were removed from the leaves using compressed air delivered through a hand-held Devilbiss sprayer (23 psi). Plants infested with eggs (100-300 eggs per plant) were placed in a controlled-environment room for 5-6 days at 82° F. and 50% RH until approximately 50% egg hatch. Four cotton plants (4 replicates) were used for each treatment. Compounds (2 mg) were dissolved in 1 mL of acetone solvent, forming stock solutions of 2000 ppm. The stock solutions were diluted 10× with 0.025% Tween 20 in H2O to obtain the test solution of 200 ppm. A hand-held Devilbiss sprayer was used for spraying a solution to both sides of cotton leaf until runoff. Reference plants (solvent check) were sprayed with the diluent only. Treated plants were held in a holding room for 8-9 days at approximately 82° F. and 50% RH prior to grading. Evaluation was conducted by counting the number of live nymphs per plant under a microscope. Insecticidal activity data presented in Table 3 were generated by using Abbott's correction formula: Corrected%Control=100*(X-Y)/X • where X=No. of live nymphs on solvent check plants • Y=No. of live nymphs on treated plants […]

[3] = test system: Green Peach Aphid (Myzus persicae); assay: Insecticidal test for green peach aphid in foliar spray assay; assay type: in vivo; conditions: 72 h, 200 ppm foliar spray on cabbage seedlings, live aphids counted after three days, Abbott's corrected % control, read-out: MYZUPE % Ctrl @ 200 ppm
Method: Certain molecules disclosed in this document were tested against MYZUPE using procedures described in the following example. In the reporting of the results, the “MYZUPE, APHIGO and BEMITA Rating Table” was used (See Table Section).
Cabbage seedlings grown in 3-inch pots, with 2-3 small (3-5 cm) true leaves, were used as test substrate. The seedlings were infested with 20-50 green peach aphids (wingless adult and nymph stage) one day prior to chemical application. Four pots with individual seedlings were used for each treatment. Compounds (2 mg) were dissolved in 2 mL of acetone/methanol (1:1) solvent, forming stock solutions of 1000 ppm. The stock solutions were diluted 5× with 0.025% Tween 20 in H2O to obtain the test solution at 200 ppm. A hand-held Devilbiss sprayer was used for spraying a solution to both sides of cabbage leaves until runoff. Reference plants (solvent check) were sprayed with the diluent only. Treated plants were held in a holding room for three days at approximately 25° C. and 40% relative humidity (RH) prior to grading. Evaluation was conducted by counting the number of live aphids per plant under a microscope. Insecticidal activity data presented in Table 3 were generated by using Abbott's correction formula: Corrected%Control=100*(X−Y)/X • where X=No. of live aphids on solvent check plants • Y=No. of live aphids on treated plants

Structure (SMILES)	melting point	inhibition at 200 ppm [1]	inhibition at 200 ppm [2]	inhibition at 200 ppm [3]
CN(C(=O)CCNC(=O)OC(C)(C)C)c1nnc(-c2cccnc2)s1 [Compound 38]	41 to 48 °C	80 to 100%	0 to 80%	80 to 100%
CCS(=O)(=O)C(C)CC(=O)N(C)c1nnc(-c2cccnc2)s1 (stereo not shown) [Compound 43]	175 to 177 °C	80 to 100%	< 0%	0 to 80%
CSCC1(C(=O)N(C)c2nnc(-c3cccnc3)s2)CC1 [Compound 44]	144 to 147 °C	80 to 100%	< 0%	80 to 100%
CO/N=C(\C)CCC(=O)N(C)c1nnc(-c2cccnc2)s1 [Compound 48, 4-[(E)-methoxyimino]-pentanoic acid methyl-(5-pyridin-3-yl-[1,3,4]thiadiazol-2-yl)-amide]	114 to 121 °C	80 to 100%	0 to 80%	80 to 100%
CN(C(=O)OCC[S+](C)[O-])c1nnc(-c2cccnc2)s1 (stereo not shown) [Compound 51]	170 to 172 °C	80 to 100%	0 to 80%	80 to 100%

The next lines start with results.

melting point	Structure (SMILES)	inhibition at 200 ppm [1]	inhibition at 200 ppm [2]	inhibition at 200 ppm [3]
42 to 52 °C	CN(C(=O)C(C)(C)C/S(C)=N/C#N)c1nnc(-c2cccnc2)s1 (stereo not shown) [Compound 39, N-2,2-trimethyl-3-(methyl-N-cyano-sulfiliminyl)-N-(5-(pyridin-3-yl)-1,3,4-thiadiazol-2-yl)propanamide]	80 to 100%	0 to 80%	80 to 100%
166 to 168 °C	CN(C(=O)C1(C[S+](C)[O-])CC1)c1nnc(-c2cccnc2)s1 (stereo not shown) [Compound 45]	80 to 100%	0 to 80%	80 to 100%
146 to 147 °C	CC(=O)CCC(=O)N(C)c1nnc(-c2cccnc2)s1 [Compound 49, N-methyl-4-oxo-N-[5-(3-pyridyl)-1,3,4-thiadiazol-2-yl]pentanamide]	80 to 100%	0 to 80%	0 to 80%
126 to 128 °C	CSCCOC(=O)N(C)c1nnc(-c2cccnc2)s1 [Compound 50, 2-(Methylthio)ethyl methyl(5-(pyridin-3-yl)-1,3,4-thiadiazol-2-yl)carbamate]	80 to 100%	0 to 80%	80 to 100%
152 to 154 °C	COC(=O)CCC(=O)N(C)c1nnc(-c2cccnc2)s1 [Compound 56, methyl 4-(methyl-(5-(pyridin-3-yl)-1,3,4-thiadiazol-2-yl)amino)-4-oxobutanoate]	80 to 100%	< 0%	0 to 80%

Reference: patent US8912338B2, “Pesticidal compositions” (Dow AgroSciences LLC, priority 2010, dated 2014)
